ChEMBL document CHEMBL3751836, “Novel peptidomimetics related to gonadotropin-releasing hormone (GnRH)” (Medchemcomm, 2015)
Calls of active or inactive are those of the source. The calls are words filed in the database; no cut-off is given here.

How the values were obtained:
[1] = target: T1, Gonadotropin-releasing hormone receptor (Homo sapiens, UniProt P30968); assay: (§1) Displacement of [125I]-DTyr6-His5-GnRH from human type 1 GnRH receptor expressed in HEK293 cell membranes after 16 to 19 hrs by gamma counting analysis
T1 sequence (P30968 whole entry): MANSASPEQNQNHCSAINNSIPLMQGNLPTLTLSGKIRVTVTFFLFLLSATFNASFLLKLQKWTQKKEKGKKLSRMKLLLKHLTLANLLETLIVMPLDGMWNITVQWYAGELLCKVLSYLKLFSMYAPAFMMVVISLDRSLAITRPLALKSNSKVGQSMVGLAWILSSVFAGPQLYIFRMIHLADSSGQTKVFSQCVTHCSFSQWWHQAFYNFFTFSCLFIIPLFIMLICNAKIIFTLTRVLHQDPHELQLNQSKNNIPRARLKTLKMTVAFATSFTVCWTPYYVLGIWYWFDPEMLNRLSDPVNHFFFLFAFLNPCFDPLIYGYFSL

[2] = target: T2, Gonadotropin-releasing hormone receptor (Homo sapiens) (UniProt P30968); assay: as §1
T2 sequence (whole entry): T1 sequence (P30968 whole entry)

[3] = Metabolic stability in rat plasma at 100 uM after 4 hrs by HPLC/mass spectrometric analysis relative to GnRH1; format: ADME, cell-free; settings: read-out: Stability
[4] = Metabolic stability in rat plasma assessed as half life at 100 uM by HPLC/mass spectrometric analysis; format: ADME, cell-free
[5] = Metabolic stability in rat plasma at 100 uM after 4 hrs by HPLC/mass spectrometric analysis relative to GnRH2; format: ADME, cell-free; settings: read-out: Stability
HEK293 = assay: Antiproliferative activity against HEK293 cells expressing human type 1 GnRH receptor at 1 uM after 4 days by MTT assay; format: functional, cell-based

| SMILES | IC50 [1] [nM] | Activity [2] | remaining at 4 h, 100 µM [3] [%] | half-life at 100 µM [4] [h] | remaining at 4 h, 100 µM [5] [%] | Activity (HEK293) |
| --- | --- | --- | --- | --- | --- | --- |
| NC(=O)CNC(=O)[C@H]1CCCN1C(=O)[C@H](Cc1ccc(O)cc1)NC(=O)[C@H](Cc1c[nH]c2ccccc12)NC(=O)C1(NC(=O)[C@@H](Cc2cnc[nH]2)NC(=O)[C@@H](CO)NC(=O)[C@@H](Cc2c[nH]c3ccccc23)NC(=O)[C@@H](Cc2c[nH]cn2)NC(=O)[C@H]2CCC(=O)N2)CCCC1 | 282 | Dose-dependent effect | – | – | – | – |
| CC(C)C[C@H](NC(=O)C1(NC(=O)[C@H](Cc2ccc(O)cc2)NC(=O)[C@H](CO)NC(=O)[C@H](Cc2c[nH]c3ccccc23)NC(=O)[C@H](Cc2c[nH]cn2)NC(=O)[C@@H]2CCC(=O)N2)CCCCC1)C(=O)N[C@@H](CCCNC(=N)N)C(=O)N1CCC[C@H]1C(=O)NCC(N)=O | 550 | Dose-dependent effect | 15 | 3.96 | – | – |
| CCNC(=O)[C@@H]1CCCN1C(=O)[C@H](CCCNC(=N)N)NC(=O)[C@H](CC(C)C)NC(=O)[C@@H](CC(C)C)NC(=O)[C@H](Cc1ccc(O)cc1)NC(=O)[C@H](CO)NC(=O)[C@H](Cc1c[nH]c2ccccc12)NC(=O)[C@H](Cc1c[nH]cn1)NC(=O)[C@@H]1CCC(=O)N1 | – | – | – | – | – | Active |
| CC(C)C[C@H](NC(=O)CNC(=O)[C@H](Cc1ccc(O)cc1)NC(=O)[C@H](CO)NC(=O)[C@H](Cc1c[nH]c2ccccc12)NC(=O)[C@H](Cc1cnc[nH]1)NC(=O)[C@@H]1CCC(=O)N1)C(=O)N[C@@H](CCCNC(=N)N)C(=O)N1CCC[C@H]1C(=O)NCC(N)=O [GONADORELIN] | – | – | – | 2.63 | – | – |
| NC(=O)CNC(=O)[C@H]1CCCN1C(=O)[C@H](Cc1ccc(O)cc1)NC(=O)[C@H](Cc1c[nH]c2ccccc12)NC(=O)C1(NC(=O)[C@@H](Cc2cnc[nH]2)NC(=O)[C@@H](CO)NC(=O)[C@@H](Cc2c[nH]c3ccccc23)NC(=O)[C@@H](Cc2c[nH]cn2)NC(=O)[C@H]2CCC(=O)N2)CCC1 | 191 | Dose-dependent effect | – | – | – | – |

Further compounds by falling IC50 [1], results first:

| IC50 [1] [nM] | Activity [2] | remaining at 4 h, 100 µM [3] [%] | half-life at 100 µM [4] [h] | remaining at 4 h, 100 µM [5] [%] | SMILES | Activity (HEK293) |
| --- | --- | --- | --- | --- | --- | --- |
| 724 | Dose-dependent effect | – | – | – | CC(C)C[C@H](NC(=O)CN1CN(c2ccccc2)C2(CCN(C(=O)[C@H](Cc3c[nH]c4ccccc34)NC(=O)[C@H](Cc3c[nH]cn3)NC(=O)[C@@H]3CCC(=O)N3)CC2)C1=O)C(=O)N[C@@H](CCCNC(=N)N)C(=O)N1CCC[C@H]1C(=O)NCC(N)=O | – |
| 589 | Dose-dependent effect | – | – | – | CC(C)C[C@H](NC(=O)C1(NC(=O)[C@H](Cc2ccc(O)cc2)NC(=O)[C@H](CO)NC(=O)[C@H](Cc2c[nH]c3ccccc23)NC(=O)[C@H](Cc2c[nH]cn2)NC(=O)[C@@H]2CCC(=O)N2)CCCC1)C(=O)N[C@@H](CCCNC(=N)N)C(=O)N1CCC[C@H]1C(=O)NCC(N)=O | – |
| 407 | Dose-dependent effect | – | – | 15 | NC(=O)CNC(=O)[C@@H]1CCCN1C(=O)[C@@H](Cc1ccc(O)cc1)NC(=O)[C@@H](Cc1c[nH]c2ccccc12)NC(=O)C1(NC(=O)[C@H](Cc2cnc[nH]2)NC(=O)[C@H](CO)NC(=O)[C@H](Cc2c[nH]c3ccccc23)NC(=O)[C@H](Cc2c[nH]cn2)NC(=O)[C@@H]2CCC(=O)N2)CCCCC1 | Active |
